Experimental data: patent US7034208B1, “Ahas inhibiting herbicide resistant wheat and method for selection thereof” (BASF Aktiengellschaft, priority 1991, dated 2006)

What was measured:
[1] = test system: wheat embryos (M3 of FS1-FS4, Fidel); assay: M3 Plant Screen: In vitro (excised embryos cultured on herbicide medium); type: cell-based
Procedure: M3 plants from the four initial plant selections (labelled FS1, FS2, FS3 and FS4) are screened for PURSUIT™ resistance in vitro. M3 seeds from each mature infloresence of these initial M2 mutants are disinfested in 70% EtOH for 30 seconds followed by disinfestation in 50% solution containing 2.625% sodium hypochlorite (as described above) for 20 minutes under vaccuum with gentle agitation provided by a stir plate. The seeds are soaked in sterile distilled water in 100×5 mm sterile plastic petri dishes for 20-24 hours after which the embryos are excised and cultured onto medium containing either 10^−4, 10^−5, or 10^−6 M PURSUIT™. […] Embryo ratings are taken at either two and one-half or three weeks after culture initiation.

[2] = test system: wheat selection FS4 and Fidel; assay: Field Trial II; type: in vivo; conditions: resistant selection FS4; postemergent; six weeks after treatment
[3] = test system: wheat selections FS1-FS4 and Fidel; assay: Field Trial I; type: in vivo; conditions: 100 g/ha postemergent, yields 10 weeks after treatment
Procedure: A field study is conducted to evaluate the tolerance of the imidazolinone-resistant wheat selections, FS1-FS4, to postemergent applications of imidazolinone herbicides. The variety Fidel, from which these selections are derived, is included as a susceptible check. Because Fidel is a French winter wheat variety and unadapted to New Jersey, this test is intended to evaluate the relative effects of the herbicide treatments on grain yields rather than to measure actual yield potentials for the genotypes. Thus, yields are presented as grams/plot rather than bushels/acre or metric tons/ha.
M4 bulked seed from parental lines, FS1, FS2, FS3 and FS4 and Fidel wild-type, is used in this field trial. The trial is planted in an incomplete split plot design with the main plot as herbicide-rate combination and the split plot as genotypes. […] The plots are three meters long and 1.5 meters wide (7 rows with 7 inch spacing between rows) with approximately 25 seed planted per row. There is a one meter space between wheat lines and ten meters between replicates.
Treatments are applied at a rate of 400 L/ha with a tractor mounted sprayer. Tween 20™ is used as a surfactant at 0.25% v/v. Wheat is treated at the Z22 stage or approximately 6 inches tall. Plant height and damage ratings are taken at 3 and 6 weeks after treatment. Yields are taken 10 weeks after treatment.

[4] = test system: M4 progeny of wheat selections FS1-FS4 and Fidel; assay: Segregation Study, postemergence spray of M4 progeny; type: in vivo
Procedure: A study is performed to assay M4 progeny of the initial mutant wheat selections for imidazolinone resistance and homogeneity. M4 seeds, from M3 plants (derived from initial selections, FS1-FS4) which survive the two-step screen described previously, are used in this study. In addition, M4 seeds derived from M3 plants of each selection which are not screened (designated “stock” plants) are evaluated as well as Fidel controls. Seeds, derived from both stock and screened M3 plants representing each infloresence of each original wheat selection (FS1-FS4), are planted in flats at a rate of twenty-five seeds per row and eight rows per flat. One week after planting, when the seedlings are at Z12 (two leaf) stage, the plants are sprayed with 62.5 g/ha PURSUIT™. The herbicide is applied with a laboratory belt sprayer at a rate of 950 L/ha with a belt speed of 12.5 sec/rev. using sprayer nozzle #40015E at a height 18 inches above the plants. Tween 20™ is used as a surfactant at 0.25% v/v. Plants are evaluated three weeks after spraying.

[5] = Control 2 = Fidel on medium with herbicide, concentration 10^−5
[6] = Control 2 = Fidel on medium with herbicide, concentration 10^−6
[7] = Control M3 = M3 seed on medium with herbicide (footnote), section 10^−5
[8] = Control M3 = M3 seed on medium with herbicide (footnote), section 10^−6
[9] = FS1 M3 embryos, concentration 10^−5
[10] = FS1 M3 embryos, concentration 10^−6
[11] = FS2 M3 embryos, concentration 10^−5
[12] = FS2 M3 embryos, concentration 10^−6
[13] = FS3 M3 embryos, concentration 10^−5
[14] = FS3 M3 embryos, concentration 10^−6
[15] = FS4 M3 embryos, concentration 10^−5
[16] = FS4 M3 embryos, concentration 10^−6

## CCc1cnc(C2=NC(C)(C(C)C)C(=O)N2)c(C(=O)O)c1 (stereo not shown) [PURSUIT, 5-ethyl-2-(4-isopropyl-4-methyl-5-oxo-2-imidazolin-2-yl)-nicotinic acid]
[1]; [5]
  Embryo Rating D (Damaged), number of embryos: 0
  Embryo Rating S (Susceptible), number of embryos: 30
  Embryo Rating T (Tolerant), number of embryos: 0
[1]; [6]
  Embryo Rating D (Damaged), number of embryos: 0
  Embryo Rating S (Susceptible), number of embryos: 15
  Embryo Rating T (Tolerant), number of embryos: 0
[1]; [7]
  Ave. Shoot Height: 14.7 cm
  Embryo Rating D (Damaged), number of embryos: 1
  Embryo Rating S (Susceptible), number of embryos: 1
  Embryo Rating T (Tolerant), number of embryos: 27
  Range Shoot Heights: 1-28 cm
[1]; [8]
  Ave. Shoot Height: 14.6 cm
  Embryo Rating D (Damaged), number of embryos: 0
  Embryo Rating S (Susceptible), number of embryos: 0
  Embryo Rating T (Tolerant), number of embryos: 15
  Range Shoot Heights: 2-28 cm
[1]; [9]
  Embryo Rating D (Damaged), number of embryos: 16
  Embryo Rating S (Susceptible), number of embryos: 42
  Embryo Rating T (Tolerant), number of embryos: 21
  Range Shoot Heights: 0-1.5 cm
[1]; [10]
  Ave. Shoot Height: 9.1 cm
  Embryo Rating D (Damaged), number of embryos: 0
  Embryo Rating S (Susceptible), number of embryos: 0
  Embryo Rating T (Tolerant), number of embryos: 70
  Range Shoot Heights: 1-22 cm
[1]; [11]
  Embryo Rating D (Damaged), number of embryos: 14
  Embryo Rating S (Susceptible), number of embryos: 45
  Embryo Rating T (Tolerant), number of embryos: 21
  Range Shoot Heights: 0-3.5 cm
[1]; [12]
  Ave. Shoot Height: 11.4 cm
  Embryo Rating D (Damaged), number of embryos: 1
  Embryo Rating S (Susceptible), number of embryos: 0
  Embryo Rating T (Tolerant), number of embryos: 64
  Range Shoot Heights: 1-23 cm
[1]; [13]
  Embryo Rating D (Damaged), number of embryos: 9
  Embryo Rating S (Susceptible), number of embryos: 58
  Embryo Rating T (Tolerant), number of embryos: 12
  Range Shoot Heights: 0-4.5 cm
[1]; [14]
  Ave. Shoot Height: 5.2 cm
  Embryo Rating D (Damaged), number of embryos: 12
  Embryo Rating S (Susceptible), number of embryos: 22
  Embryo Rating T (Tolerant), number of embryos: 34
  Range Shoot Heights: 1-23 cm
[1]; [15]
  Embryo Rating D (Damaged), number of embryos: 15
  Embryo Rating S (Susceptible), number of embryos: 31
  Embryo Rating T (Tolerant), number of embryos: 16
  Range Shoot Heights: 0-3.0 cm
[1]; [16]
  Ave. Shoot Height: 13.4 cm
  Embryo Rating D (Damaged), number of embryos: 8
  Embryo Rating S (Susceptible), number of embryos: 13
  Embryo Rating T (Tolerant), number of embryos: 59
  Range Shoot Heights: 1-33 cm
[1]; Fidel controls or M3 embryos, medium containing 10^−4 M
  embryos that germinate: None of the embryos
[1]; M3 embryos, 10^−5 M in the medium, still considerable growth inhibition
  tolerance of embryos: somewhat tolerant
[2]
  effect on final plant height: no effect
[3]
  yield reduction: 35%
[4]; Fidel, 62.5 g/ha postemergence at Z12 stage, three weeks after spraying, all plants die
  susceptibility of Fidel: completely susceptible
[4]; imidazolinone-resistant winter wheat selections, M4, 62.5 g/ha postemergent, greenhouse
  tolerance of resistant selections: excellent tolerance
